Source: article PMC4894406, “Results of an abbreviated phase-II study with the Akt Inhibitor MK-2206 in Patients with Advanced Biliary Cancer” (Scientific Reports, 2015)
Values joined by “and” are separate entries in the source; they are usually repeats but may differ in a detail not shown here. Identical values can stand only once. Like-named read-outs stand apart in the source and are kept apart here.

How the values were obtained:
[1] = Plasma pharmacokinetics in biliary cancer patients (LC-MS/MS, non-compartmental); assay type: in vivo, human; settings: for AUC(0-t): read-out: AUC0–96; for Vd/F: read-out: Vz/F; for k el: read-out: λz (converted)
Protocol: Plasma samples were collected from all patients at Week 1 of Cycle 1 immediately prior to dose administration, and at 30 min, 1, 2, 3, 4, 6, 8, 24, 48, and 96 hours after dose administration. The 24, 48 and 96-hour samples were collected on the mornings of days 2, 3 and 5 within 4 hours of the target time (e.g. 24 ± 4, 48 ± 4, and 96 ± 4 hours). Plasma samples were also collected immediately prior to the oral intake of MK-2206 tablet(s) on days 8, 15 and 29 (i.e. Cycle 2, Day 1) so that trough pre-dose levels of MK-2206 could be determined in the following studies. The plasma levels of MK-2206 were evaluated using quantitative liquid chromatography/tandem mass spectrometry (LC-MS/MS) at Merck & Co. Non-compartmental PK parameters were determined for MK-2206 using Phoenix WinNonlin (v6.3, Pharsight, Mountain View, CA).

human Akt (Akt-2) = settings: cited from earlier work
human Akt (Akt-3) = settings: cited from earlier work
CYP3A4 = system: CYP3A4; set-up: method as in PMID 24387695; settings: read-out: IC50 CYP3A4 inhibition; cited from earlier work
CYP2C9 = system: CYP2C9; set-up: method as in PMID 24387695; settings: read-out: IC50 CYP2C9 inhibition; cited from earlier work
CYP2D6 = system: CYP2D6; set-up: method as in PMID 24387695; settings: read-out: IC50 CYP2D6 inhibition; cited from earlier work
CYP3A = system: CYP3A; set-up: method as in PMID 24387695; settings: at 0.1 to 10 μM; cited from earlier work
breast cancer = system: breast cancer; set-up: method as in PMID 24252402; settings: 48-hr plasma concentration, patients with breast cancer; cited from earlier work
[2] = OSU Trial, 7 subjects (subject 1004 excluded), BSA-adjusted
[3] = OSU Trial, 7 subjects (subject 1004 excluded), first dose 200 mg
[4] = human, plasma, po, 200 mg, subject 1001, first dose 200 mg oral
[5] = human, plasma, po, 200 mg, subject 1002, first dose 200 mg oral
[6] = human, plasma, po, 200 mg, subject 1003, first dose 200 mg oral
[7] = human, plasma, po, 200 mg, subject 1004, first dose 200 mg oral
[8] = human, plasma, po, 200 mg, subject 1005, first dose 200 mg oral
[9] = human, plasma, po, 200 mg, subject 1007, first dose 200 mg oral
[10] = human, plasma, po, 200 mg, subject 2006, first dose 200 mg oral
[11] = human, plasma, po, 200 mg, subject 2008, first dose 200 mg oral

For `NC1(c2ccc(-c3nc4ccn5c(=O)[nH]nc5c4cc3-c3ccccc3)cc2)CCC1` [MK-2206], the “CL/F/m^2 (BSA-adjusted CL/F)” value [1, 2] was 16.5 +/− 7.2 L/hr/m^2 and 16.5±7.2 L/hr/m^2, the “Vz/F/m^2” value [1, 2] was 1521±931 L/m^2 and the “Cmax (average)” value [1, 3] was 114 ng/mL. The “Tmax (average)” value [1, 3] was 6.0 ± 1.6 h, the concentration at 48 h ([1]; human, plasma, oral, 200 mg, 6 of 8 patients, read-out: 48-hr plasma concentration) was > 22.7 ng/mL and > 56.8 nM and the half-life ([1]; human, plasma, oral, 200 mg, OSU Trial, 7 subjects (subject 1004 excluded), first dose 200 mg, read-out: Half life (average) (converted)) was 63.5 ± 21.2 h. For the same compound, the concentration at 8 day ([1]; human, plasma, oral, 200 mg, day 8, 200 mg weekly, read-out: trough pre-dose average plasma concentration) was 14.7 ng/mL, the concentration at 15 day ([1]; human, plasma, oral, 200 mg, day 15, 200 mg weekly, read-out: trough pre-dose average plasma concentration) was 14.4 ng/mL and the concentration at 48 h ([1]; human, plasma, oral, 200 mg, one of the other two patients, read-out: Plasma concentration measured at 48 hours) was 18.5 ng/mL. It also gave a concentration at 48 h ([1]; human, plasma, oral, 200 mg, subject 1004, read-out: Plasma concentration measured at 48 hours) of 5.06 ng/mL, a Tmax ([1]; human, plasma, po, 200 mg, eight patients, first dose 200 mg oral, read-out: Tmax, range) of 4 to 8 h and a half-life ([1]; human, plasma, po, 200 mg, eight patients, first dose 200 mg oral, read-out: median terminal elimination half-life (converted)) of 58 h. For the same compound, the Tmax ([1]; human, plasma, po, 200 mg, eight patients, first dose 200 mg oral, read-out: median time to peak observed plasma concentrations (Tmax)) was 6 h, the half-life ([1]; human, plasma, po, 200 mg, eight patients, first dose 200 mg oral, read-out: terminal elimination half-life, range) was 34 to 88 h and the Cmax [1, 4] was 106 ng/mL. It also gave an AUC(0-t) [1, 4] of 3320 ng·h/mL, a half-life ([1]; human, plasma, po, 200 mg, subject 1001, first dose 200 mg oral, read-out: Half-life (converted)) of 53.3 h and a Tmax ([1]; human, plasma, po, 200 mg, subject 1001, first dose 200 mg oral, read-out: Tmax) of 4 h. For the same compound, the Vd/F [1, 4] was 3270 L, the k el [1, 4] was 3.61e-06 s⁻¹ and the Cmax [1, 5] was 111 ng/mL. The AUC(0-t) [1, 5] was 6850 ng·h/mL, the half-life ([1]; human, plasma, po, 200 mg, subject 1002, first dose 200 mg oral, read-out: Half-life (converted)) was 80.4 h and the Tmax ([1]; human, plasma, po, 200 mg, subject 1002, first dose 200 mg oral, read-out: Tmax) was 6 h. For the same compound, the Vd/F [1, 5] was 1870 L, the k el [1, 5] was 2.5e-06 s⁻¹ and the Cmax [1, 6] was 176 ng/mL. The AUC(0-t) [1, 6] was 8450 ng·h/mL, the half-life ([1]; human, plasma, po, 200 mg, subject 1003, first dose 200 mg oral, read-out: Half-life (converted)) was 33.8 h and the Tmax ([1]; human, plasma, po, 200 mg, subject 1003, first dose 200 mg oral, read-out: Tmax) was 6 h. The Vd/F [1, 6] was 989 L, the k el [1, 6] was 5.83e-06 s⁻¹ and the Cmax [1, 7] was 11.1 ng/mL. The AUC(0-t) [1, 7] was 531 ng·h/mL, the half-life ([1]; human, plasma, po, 200 mg, subject 1004, first dose 200 mg oral, read-out: Half-life (converted)) was 62.5 h and the Tmax ([1]; human, plasma, po, 200 mg, subject 1004, first dose 200 mg oral, read-out: Tmax) was 8 h. It also gave a Vd/F [1, 7] of 22200 L, a k el [1, 7] of 3.06e-06 s⁻¹ and a Cmax [1, 8] of 108 ng/mL. For the same compound, the AUC(0-t) [1, 8] was 6020 ng·h/mL, the half-life ([1]; human, plasma, po, 200 mg, subject 1005, first dose 200 mg oral, read-out: Half-life (converted)) was 86.9 h and the Tmax ([1]; human, plasma, po, 200 mg, subject 1005, first dose 200 mg oral, read-out: Tmax) was 8 h. It also gave a Vd/F [1, 8] of 2210 L, a k el [1, 8] of 2.22e-06 s⁻¹ and a Cmax [1, 9] of 90.1 ng/mL. The AUC(0-t) [1, 9] was 3730 ng·h/mL, the half-life ([1]; human, plasma, po, 200 mg, subject 1007, first dose 200 mg oral, read-out: Half-life (converted)) was 50.2 h and the Tmax ([1]; human, plasma, po, 200 mg, subject 1007, first dose 200 mg oral, read-out: Tmax) was 6 h. The Vd/F [1, 9] was 2880 L, the k el [1, 9] was 3.89e-06 s⁻¹ and the Cmax [1, 10] was 144 ng/mL. The AUC(0-t) [1, 10] was 5850 ng·h/mL, the half-life ([1]; human, plasma, po, 200 mg, subject 2006, first dose 200 mg oral, read-out: Half-life (converted)) was 52.4 h and the Tmax ([1]; human, plasma, po, 200 mg, subject 2006, first dose 200 mg oral, read-out: Tmax) was 4 h. For the same compound, the Vd/F [1, 10] was 1870 L, the k el [1, 10] was 3.61e-06 s⁻¹ and the Cmax [1, 11] was 44.7 ng/mL. It also gave an AUC(0-t) [1, 11] of 2060 ng·h/mL, a half-life ([1]; human, plasma, po, 200 mg, subject 2008, first dose 200 mg oral, read-out: Half-life (converted)) of 87.5 h and a Tmax ([1]; human, plasma, po, 200 mg, subject 2008, first dose 200 mg oral, read-out: Tmax) of 8 h. The Vd/F [1, 11] was 6560 L, the k el [1, 11] was 2.22e-06 s⁻¹ and the CL/F ([1]; subject 1001, first dose 200 mg oral) was 42.5 L/h. The CL/F ([1]; subject 1002, first dose 200 mg oral) was 16.1 L/h, the CL/F ([1]; subject 1003, first dose 200 mg oral) was 20.3 L/h and the CL/F ([1]; subject 1004, first dose 200 mg oral) was 245 L/h. The “Cmax and AUC of subject 1004 compared to others” value ([1]; subject 1004 relative to the other seven subjects) was 6% to 25, the CL/F ([1]; subject 1005, first dose 200 mg oral) was 17.6 L/h and the CL/F ([1]; subject 1007, first dose 200 mg oral) was 39.8 L/h. The CL/F ([1]; subject 2006, first dose 200 mg oral) was 24.8 L/h, the CL/F ([1]; subject 2008, first dose 200 mg oral) was 52.0 L/h and the “accumulation with the current regimen” value ([1]; trough levels days 8 and 15, 200 mg weekly) was “no significant accumulation”. For the same compound, the IC50 (human Akt (Akt-2)) was 12 nM, the IC50 (human Akt (Akt-3)) was 65 nM and the IC50 (CYP3A4) was […]. For the same compound, the IC50 (CYP2C9) was over 35000 nM, the IC50 (CYP2D6) was over 35000 nM and the “effect on CYP3A mRNA and activity” value (CYP3A) was “insignificant effect”. For the same compound, the “plasma concentration reported to be effective” value (breast cancer) was […].
